Several values for one entry are separate records, joined by “and”; a condition that tells them apart may be missing. Identical values can stand only once. Counter-ions that a name gives are not always drawn. Like-named read-outs stand apart in the source and are kept apart here.
Legend:
[1] = test system: icilin-induced “wet-dog” shakes (WDS); assay: Inhibition of Icilin-Induced “Wet-Dog” Shakes in Rats; assay type: in vivo, Sprague Dawley rats; conditions: po
Protocol: The test compound was administered in 10% hydroxypropyl-β-cyclodextrin (HP-13-CD), p.o., 60 min before icilin.
% Inhibition=[1−(test compound WDS count/vehicle WDS count)]×100.

canine TRPM8 = biological target: T1, canine TRPM8 (Canis lupus familiaris, UniProt Q1A7N1); assay: In Vitro Canine TRPM8 Functional Assay (intracellular Ca2+ fluorescence, icilin activation, HEK293 cells); assay type: cell-based; conditions: for IC50: HEK293 cells expressing canine TRPM8, icilin activation, individually measured values (batches/salt forms), read-out: IC50 (nM), in vitro TRP M8 Activity
T1 construct: expressed in transfected cells
Outline: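 HEK293 cells expressing canine TRPM8 loaded with Calcium 3 dye, then stimulated with icilin; intracellular Ca2+ rise read on FLIPR or FDSS. Peak fluorescence minus basal normalized to percent maximal response; IC50 from sigmoidal nonlinear regression of quadruplicate wells.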

[2] = test system: CCI-induced cold hypersensitivity; assay: Chronic Constriction Injury (CCI)-Induced Model of Neuropathic Pain, Acetone-Induced Hypersensitivity; assay type: in vivo, Sprague-Dawley rats; conditions: rat, p.o., acetone-induced withdrawals, 2 h after administration
From the text: Male Sprague-Dawley rats (225-450 g; n=5-8/treatment) were used to evaluate the ability of test compounds to reverse CCl-induced cold hypersensitivity. Four loose ligatures of 4-0 chromic gut were surgically placed around the left sciatic nerve under inhalation anesthesia as described by Bennett et al. (BENNETT, G. J., et al., “A peripheral mononeuropathy in rat that produces disorder of pain sensation like those seen in man”, Pain, 1988, pp 87-107, Vol. 33(1)). Fourteen to 35 days following CCl surgery, subjects were placed in elevated observation chambers containing wire mesh floors, and five applications of acetone (0.05 mL/application separated by approximately 5 min) were spritzed onto the plantar surface of the paw using a multidose syringe. An abrupt withdrawal or lifting of the paw was considered a positive response. The number of positive responses was recorded for each rat over the five trials. […] The number of withdrawals was re-determined at 2 hr after compound administration. […] Results are presented below as a percent inhibition of […], which was calculated for each subject and then averaged by treatment as follows: […]

humans = conditions: 5-10 mg ingested orally; cited from earlier work
rats = conditions: cited from earlier work
[3] = rat, p.o., dose 3 mg/kg, 1.5 hrs, read-out: Icilin % Inhibition @1.5 hrs
[4] = HEK293, 0.2 μM test compound, individually measured values, read-out: % Inh (%) @0.2 μM, in vitro TRP M8 Activity

T1 sequence (Q1A7N1 1-1104): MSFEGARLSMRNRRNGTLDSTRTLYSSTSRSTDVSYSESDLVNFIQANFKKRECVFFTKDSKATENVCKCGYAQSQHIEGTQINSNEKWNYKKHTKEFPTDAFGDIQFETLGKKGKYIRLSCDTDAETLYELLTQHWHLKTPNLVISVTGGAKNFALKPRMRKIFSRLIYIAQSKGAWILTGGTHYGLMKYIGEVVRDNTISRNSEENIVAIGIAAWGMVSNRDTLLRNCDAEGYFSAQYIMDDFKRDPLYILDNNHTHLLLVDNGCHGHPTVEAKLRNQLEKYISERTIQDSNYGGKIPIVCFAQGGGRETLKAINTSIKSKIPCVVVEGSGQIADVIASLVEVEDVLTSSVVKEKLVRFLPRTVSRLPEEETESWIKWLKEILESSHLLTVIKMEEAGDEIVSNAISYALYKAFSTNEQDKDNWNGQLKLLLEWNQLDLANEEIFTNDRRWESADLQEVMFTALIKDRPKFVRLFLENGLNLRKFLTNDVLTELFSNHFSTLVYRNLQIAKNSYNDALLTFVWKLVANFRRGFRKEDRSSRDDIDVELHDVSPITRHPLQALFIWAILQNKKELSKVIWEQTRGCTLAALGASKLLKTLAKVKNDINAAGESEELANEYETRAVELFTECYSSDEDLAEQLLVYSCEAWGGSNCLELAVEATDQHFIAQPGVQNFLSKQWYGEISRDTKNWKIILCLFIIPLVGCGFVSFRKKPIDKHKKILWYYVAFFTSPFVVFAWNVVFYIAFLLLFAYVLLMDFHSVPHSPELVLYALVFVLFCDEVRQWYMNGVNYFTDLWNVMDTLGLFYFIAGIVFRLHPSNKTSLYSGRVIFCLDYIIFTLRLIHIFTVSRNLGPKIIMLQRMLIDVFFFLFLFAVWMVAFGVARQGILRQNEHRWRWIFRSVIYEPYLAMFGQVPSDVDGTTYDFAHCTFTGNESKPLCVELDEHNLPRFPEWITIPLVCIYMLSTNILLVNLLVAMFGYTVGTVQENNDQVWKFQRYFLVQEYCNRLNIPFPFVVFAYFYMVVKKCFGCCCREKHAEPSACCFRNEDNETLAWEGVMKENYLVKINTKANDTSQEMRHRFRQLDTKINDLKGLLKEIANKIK

Row | Compound | IC50 (canine TRPM8) | inhibition at 0.2 µM (canine TRPM8; [4]) | CCI % Inhibition @ 2 h [2] | inhibition in vivo at 3 mg/kg [1, 3] | other results
1 | CC(C)(C)c1cc(-c2nc3cc(-c4ccccc4OC(F)(F)F)ccc3[nH]2)on1.[Na] [Compound 10, 2-(3-tert-Butylisoxazol-5-yl)-5-(2-trifluoromethoxyphenyl)-1H-benzimidazole sodium salt] | 12 nM and 15 nM and 10 nM |  | 57.1% |  | inhibition in vivo at 30 mg/kg ([1]; rat, dose 30 mg/kg, 1.5 hrs): 97.3%
2 | Cl.Cn1nc(C(C)(C)C)c(Cl)c1-c1nc2cc(-c3c(F)cccc3F)ccc2[nH]1 [Compound 85, 2-(5-tert-Butyl-4-chloro-2-methyl-2H-pyrazol-3-yl)-5-(2,6-difluoro-phenyl)-1H-benzimidazole hydrochloride] | 3.7 nM and 4.6 nM and 3.8 nM |  | 34.3% |  | inhibition in vivo at 10 mg/kg ([1]; rat, p.o., dose 10 mg/kg, 1.5 hrs, read-out: Icilin % Inhibition @1.5 hrs): 96.4%
3 | Cl.Cn1nc(C(C)(C)C)c(Cl)c1-c1nc2cc(-c3ccccc3F)ccc2[nH]1 [Compound 90, 2-(5-tert-Butyl-4-chloro-2-methyl-2H-pyrazol-3-yl)-5-(2-fluoro-phenyl)-1H-benzimidazole hydrochloride] | 7.4 nM and 5 nM and 9.3 nM |  | 22.5% |  | inhibition in vivo at 5.6 mg/kg ([1]; rat, dose 5.6 mg/kg, 1.5 hrs): 52.7%
4 | Cn1nc(C(C)(C)C)c(Cl)c1-c1nc2cc(-c3c(F)cccc3C(F)(F)F)cc(C(F)(F)F)c2[nH]1 [Compound 125, 2-(5-tert-Butyl-4-chloro-2-methyl-2H-pyrazol-3-yl)-5-(2-fluoro-6-trifluoromethyl-phenyl)-7-trifluoromethyl-1H-benzimidazole sodium salt] | 3.2 nM and 1.7 nM |  |  |  | inhibition in vivo at 3 mg/kg ([1]; Rattus norvegicus, 1.5 h, read-out: Icilin % Inhibition @1.5 hrs): 24.6%; inhibition at 0.2 µM (canine TRPM8; HEK293, read-out: % Inh (%) @0.2 μM, in vitro TRP M8 Activity, 0.2 μM test compound, individually measured values): 100%
5 | Cc1c(C(C)(C)C)nn(C)c1-c1nc2cc(-c3ccccc3F)cc(Cl)c2[nH]1 [Compound 133, 2-(5-tert-Butyl-2,4-dimethyl-2H-pyrazol-3-yl)-7-chloro-5-(2-fluoro-phenyl)-1H-benzimidazole hydrochloride] | 12.6 nM and 10.2 nM | 99% |  | 4.6% | 
6 | Cc1c(C(C)(C)C)nn(C)c1-c1nc2cc(-c3c(F)cccc3F)cc(Cl)c2[nH]1 [Compound 136, 2-(5-tert-Butyl-2,4-dimethyl-2H-pyrazol-3-yl)-7-chloro-5-(2,6-difluoro-phenyl)-1H-benzimidazole hydrochloride] | 8.2 nM and 9 nM | 100% |  | 61.6% | 
7 | O=C1NC(c2cccc([N+](=O)[O-])c2)=CCN1c1ccccc1O [Icilin] |  |  |  |  | coldness in the mouth, pharynx and chest lasting (humans): 30 to 60 min; behaviour caused in initial in vivo testing (rats): “wet-dog” shakes

The next lines start with results.

Row | IC50 (canine TRPM8) | inhibition at 0.2 µM (canine TRPM8; [4]) | Compound | CCI % Inhibition @ 2 h [2] | inhibition in vivo at 3 mg/kg [1, 3] | other results
8 | 10.7 nM and 5.3 nM | 100% | Cn1nc(C(C)(C)C)c(Cl)c1-c1nc2cc(-c3c(F)cccc3OC(F)(F)F)cc(Cl)c2[nH]1 [Compound 130, 2-(5-tert-Butyl-4-chloro-2-methyl-2H-pyrazol-3-yl)-7-chloro-5-(2-fluoro-6-trifluoromethoxy-phenyl)-1H-benzimidazole hydrochloride] |  | 22.7% | 
9 | 2.3 nM and 7 nM and 4.3 nM and 4.7 nM and 3.2 nM | 99% | Cn1nc(C(C)(C)C)c(C#N)c1-c1nc2cc(-c3ccccc3Cl)cc(Cl)c2[nH]1.[Na] [Compound 168, 3-tert-Butyl-5-[7-chloro-5-(2-chloro-phenyl)-1H-benzimidazol-2-yl]-1-methyl-1H-pyrazole-4-carbonitrile sodium salt] | 74.3% | 86% | % Inh (%) @0.2 μM, in vitro TRP M8 Activity (canine TRPM8; 0.2 μM test compound, individually measured values, sodium salt, 0.2 µM): 101% and 100% (2×)
10 | 8 nM | 100% | Cn1nc(C(C)(C)C)c(C#N)c1-c1nc2cc(-c3ccccc3C(F)(F)F)cc(Cl)c2[nH]1 [Compound 169, 3-tert-Butyl-5-[7-chloro-5-(2-trifluoromethyl-phenyl)-1H-benzimidazol-2-yl]-1-methyl-1H-pyrazole-4-carbonitrile sodium salt] |  | 34% | 
11 | 12.4 nM | 100% | Cn1nc(C(C)(C)C)c(C#N)c1-c1nc2cc(-c3ccccc3OC(F)(F)F)cc(Cl)c2[nH]1 [Compound 170, 3-tert-Butyl-5-[7-chloro-5-(2-trifluoromethoxy-phenyl)-1H-benzimidazol-2-yl]-1-methyl-1H-pyrazole-4-carbonitrile sodium salt] |  | 4.3% | 

Source: patent publication US20120202856A1, “SUBSTITUTED BENZIMDAZOLE DERIVATIVES USEFUL AS TRPM8 RECEPTOR MODULATORS” (priority 2011, published 2012)
